Source: patent US8445526B2, “Compositions and methods for treatment of glaucoma” (Glaucoma & Nasal Therapies LLC, priority 2011, dated 2013)
Converted amounts (≈) assume the structure as drawn. Where two headings read alike, the source gives them in different places.

Columns and labels:
[1] = system: normotensive rabbits; details: cited from earlier work; for contralateral (nontreated eye) IOP reduction compared to the treated eye / time of peak effect: normotensive rabbits; for time of peak effect: dexmedetomidine 0.05%, brimonidine tartrate 0.10%
[2] = system: α-2 over α-1 adrenergic receptors; details: binding affinity for α-2 over α-1 receptors; cited from earlier work
[3] = system: ocular hypertensive and normotensive eyes of patients; details: cited from earlier work; for equivalent reduction in normotensive human eyes: prior art formulations
[4] = system: normotensive eyes; details: under specific and very limited formulation conditions
[5] = system: one eye of an individual; experiment: Example 3: cosmetic appearance (redness, whiteness) of the treated eye; assay type: in vivo, human; details: for Eye White Shade: baseline 1; for Redness: baseline 1.5
[6] = system: normotensive (<21 mm Hg) human subject; details: after instillation
Procedure: Various formulations of α-2 agonists were unilaterally administered to a normotensive (<21 mm Hg) human subject. The subject first underwent baseline IOP testing using standard applanation tonometry via slit lamp. After fluorescein instillation, the drug was instilled as a morning dose at between about 7:00 and 9:00 AM. […] Follow up IOP checks were designed to be about 4 hours after initial instillation, where instillation consisted of 1-2 drops.

[7] = conventional brimonidine formulations

brimonidine tartrate
peak IOP reduction ([1]; 0.10% solution in normotensive rabbits): about 6.2 mm Hg

Nc1cc(Cl)c(N=C2NCCN2)c(Cl)c1 [Apraclondine]
α2:α1 [2]: 150

Cc1cc(C(C)(C)C)c(O)c(C)c1CC1=NCCN1 [Oxymetazoline]
α2:α1 [2]: 50

Cc1cccc(C)c1N=C1NCCCS1 [Xylazine]
α2:α1 [2]: 160

Cc1cccc([C@H](C)c2cnc[nH]2)c1C [Dexmedetomidine]
equivalent reduction in normotensive human eyes [3]: about 20%
pressure reduction in the nontreated (contralateral) eye relative to the treated eye ([1]; 0.02% in normotensive rabbits, U.S. Pat. No. 5,304,569): 100%
pressure reduction ([1]; 0.05% in normotensive rabbits, Vartiainen et al): 4.75 mm Hg
contralateral (nontreated eye) IOP reduction compared to the treated eye [1]: about 100%
time of peak effect [1]: about 2 hours
more effective than brimonidine by (IOP reduction vs. time) [4]: about 200%
α2:α1 [2]: 1620
max soluble concentration (pH 6): 0.195%
solubility (pH 6): 1.953 mg/mL (≈ 9750 µM)
max soluble concentration (pH 6.4): 0.060%
max soluble concentration (pH 7): 0.023%
solubility (pH 7): 0.224 mg/mL (≈ 1120 µM)
max soluble concentration (pH 7.4): 0.015%
max soluble concentration (pH 8): 0.013%
solubility (pH 8): 0.134 mg/mL (≈ 669 µM)
start of decrease in hyperemia and increase in whiteness ([5]; after the application): about 2 minutes
time to maximum whiteness ([5]; after the application): about 10 minutes
Eye White Shade ([5]; dexmedetomidine 0.010%, 4 (whitest)-1 off-white-gray/yellow): 1
Redness ([5]; dexmedetomidine 0.010%, scale 0 (none)-4 (reddest + chemosis)): 1.25
Redness ([5]; dexmedetomidine 0.022%, scale 0-4): 1.25
Eye White Shade ([5]; dexmedetomidine 0.022%, scale 4-1): 1.25
Redness ([5]; dexmedetomidine 0.050%, scale 0-4): 1.0
Eye White Shade ([5]; dexmedetomidine 0.050%, scale 4-1): 1.5
Redness ([5]; dexmedetomidine 0.10%, scale 0-4): 0.75
Eye White Shade ([5]; dexmedetomidine 0.10%, scale 4-1): 1.75
Redness ([5]; dexmedetomidine […], scale 0-4): 1.0
Eye White Shade ([5]; dexmedetomidine […], scale 4-1): 1.5
total duration of the effect (reduced hyperemia, increase in whiteness) ([5]; in vivo): 3 to 5 h

Brc1c(NC2=NCCN2)ccc2nccnc12 [Brimonidine]
substantial local side effects ([3]; conjunctival hyperemia, blepharitis, allergy, edema, follicles, foreign body sensation, burning, blurring): 10-25 % of users
time of peak IOP reduction effect after instillation ([3]; conventional brimonidine formulations, normotensive eyes): 2 to 3 h
duration of IOP reduction effect of a single dose [3, 7]: ≤ 12 h
peak IOP reduction effect in normotensive eyes [3, 7]: 15-18%
peak IOP reduction in normotensive eyes (less than 21 mm Hg) ([3]; human, in vivo): 6-18%
peak IOP reduction in ocular hypertensive eyes ([3]; human, in vivo): 20-25%
peak effect within (time of instillation) ([3]; human, in vivo): 2 to 3 h
topical lid and conjunctival allergy, dryness, and redness ([3]; human, in vivo): over 10 % of patients
users complaining of dryness ([3]; human, in vivo): more than 10%
rebound redness ([3]; long term use): 20-25%
equivalent reduction in normotensive human eyes [3]: about 20%
duration of effect ([3]; typically): less than 12 hours
contralateral (nontreated eye) IOP reduction compared to the treated eye [1]: about 10%
time of peak effect [1]: about 3 hours
IOP reduction peaking at (time) [6]: 2 h

CC(Oc1c(Cl)cccc1Cl)C1=NCCN1 (stereo not shown) [Lofexidine]
α2:α1 [2]: <300

Clc1cccc(Cl)c1N=C1NCCN1 [Clonidine]
α2:α1 [2]: 200
